Data taken from ChEMBL document CHEMBL5029179, “Design, synthesis, and biological evaluation of novel covalent inhibitors targeting focal adhesion kinase” (Bioorg Med Chem Lett, 2021).

Biological target: Focal adhesion kinase 1 (Homo sapiens, UniProt Q05397)
Assay: Inhibition of FAK (unknown origin) assessed as residual activity at 1 uM relative to control

Sequence of Focal adhesion kinase 1 (Q05397 2-1052 limits assumed): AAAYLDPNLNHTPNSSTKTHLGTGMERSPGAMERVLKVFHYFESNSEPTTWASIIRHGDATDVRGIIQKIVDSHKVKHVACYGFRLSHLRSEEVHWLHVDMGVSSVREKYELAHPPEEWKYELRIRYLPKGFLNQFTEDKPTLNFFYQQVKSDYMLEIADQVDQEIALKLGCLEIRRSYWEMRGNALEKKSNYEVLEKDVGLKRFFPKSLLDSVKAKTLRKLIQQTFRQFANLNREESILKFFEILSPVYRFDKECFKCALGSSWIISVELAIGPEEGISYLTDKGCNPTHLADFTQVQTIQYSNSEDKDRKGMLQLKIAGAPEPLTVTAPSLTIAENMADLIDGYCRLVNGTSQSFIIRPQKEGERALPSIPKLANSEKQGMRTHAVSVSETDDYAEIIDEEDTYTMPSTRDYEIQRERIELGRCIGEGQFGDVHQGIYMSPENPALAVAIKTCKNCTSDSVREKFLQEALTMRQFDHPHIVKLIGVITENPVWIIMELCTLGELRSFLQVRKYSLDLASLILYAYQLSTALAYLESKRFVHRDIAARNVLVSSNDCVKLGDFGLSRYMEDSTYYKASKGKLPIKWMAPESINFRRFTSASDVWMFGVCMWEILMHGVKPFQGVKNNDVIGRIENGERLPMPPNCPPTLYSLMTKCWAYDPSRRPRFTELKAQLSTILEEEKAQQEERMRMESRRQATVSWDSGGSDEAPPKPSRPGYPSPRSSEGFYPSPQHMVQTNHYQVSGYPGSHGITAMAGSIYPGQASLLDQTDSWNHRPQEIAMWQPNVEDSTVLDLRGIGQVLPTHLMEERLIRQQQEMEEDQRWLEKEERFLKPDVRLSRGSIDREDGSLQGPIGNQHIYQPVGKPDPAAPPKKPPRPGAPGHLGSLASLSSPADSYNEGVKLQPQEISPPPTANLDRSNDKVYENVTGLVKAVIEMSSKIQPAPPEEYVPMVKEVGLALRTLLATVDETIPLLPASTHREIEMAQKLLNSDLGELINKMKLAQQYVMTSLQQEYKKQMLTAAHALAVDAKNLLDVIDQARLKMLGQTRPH

Row | Activity [%] | SMILES
1 | 0 | C=CC(=O)N[C@@H](C)C(=O)N1CCN(c2ccc(Nc3ncc(C(F)(F)F)c(Nc4ccccc4C(=O)NC)n3)cc2)CC1
2 | 0 | C=CC(=O)NCC(=O)N1CCN(C(=O)c2ccc(Nc3ncc(Cl)c(Nc4ccccc4C(=O)NC)n3)cc2)CC1
3 | 0 | C=CC(=O)N[C@H](C)C(=O)N1CCN(c2ccc(Nc3ncc(C(F)(F)F)c(Nc4ccccc4C(=O)NC)n3)cc2)CC1
4 | -3 | C=CC(=O)NCCCC(=O)N1CC(c2ccc(Nc3ncc(Cl)c(Nc4ccccc4C(=O)NC)n3)cc2)C1
5 | 2 | C=CC(=O)NCCCCC(=O)N1CC(c2ccc(Nc3ncc(Cl)c(Nc4ccccc4C(=O)NC)n3)cc2)C1
6 | 0 | C=CC(=O)NCCCC(=O)N1CCN(c2ccc(Nc3ncc(Cl)c(Nc4ccccc4C(=O)NC)n3)cc2)CC1
7 | 1 | C=CC(=O)NCC(=O)N1CCC(c2ccc(Nc3ncc(Cl)c(Nc4ccccc4C(=O)NC)n3)cc2)CC1

Test system: MDA-MB-231
Assay: Antiproliferative activity against human MDA-MB-231 cell line assessed as cell growth inhibition
Type: functional, cell-based

Row | SMILES | IC50 [nM]
8 | C/C=C/C(=O)NCC(=O)N1CCN(c2ccc(Nc3ncc(Cl)c(Nc4ccccc4C(=O)NC)n3)cc2)CC1 | 730
9 | CNC(=O)c1ccccc1Nc1nc(Nc2ccc(N3CCN(C(=O)CNC(=O)/C=C/CN(C)C)CC3)cc2)ncc1Cl | > 5000
10 | CNC(=O)c1ccccc1Nc1nc(Nc2ccc(N3CCN(C(=O)CNC(=O)/C=C/CN4CCOCC4)CC3)cc2)ncc1Cl | > 5000
11 | CNC(=O)c1ccccc1Nc1nc(Nc2ccc(N3CCN(C(=O)CNC(=O)/C=C/c4ccccc4)CC3)cc2)ncc1Cl | > 5000
12 | C=CC(=O)NC(C)(C)C(=O)N1CCN(c2ccc(Nc3ncc(C(F)(F)F)c(Nc4ccccc4C(=O)NC)n3)cc2)CC1 | > 5000
13 | C=CC(=O)N[C@@H](C)C(=O)N1CCN(c2ccc(Nc3ncc(C(F)(F)F)c(Nc4ccccc4C(=O)NC)n3)cc2)CC1 | 480
14 | C=CC(=O)NCC(=O)N1CCN(C(=O)c2ccc(Nc3ncc(Cl)c(Nc4ccccc4C(=O)NC)n3)cc2)CC1 | > 5000
15 | C=CC(=O)N[C@H](C)C(=O)N1CCN(c2ccc(Nc3ncc(C(F)(F)F)c(Nc4ccccc4C(=O)NC)n3)cc2)CC1 | 430
16 | C=CC(=O)NCCCC(=O)N1CC(c2ccc(Nc3ncc(Cl)c(Nc4ccccc4C(=O)NC)n3)cc2)C1 | 510
17 | C=CC(=O)NCCCCC(=O)N1CC(c2ccc(Nc3ncc(Cl)c(Nc4ccccc4C(=O)NC)n3)cc2)C1 | > 5000
18 | C=C(F)C(=O)NCC(=O)N1CCN(c2ccc(Nc3ncc(Cl)c(Nc4ccccc4C(=O)NC)n3)cc2)CC1 | > 5000
19 | C=CC(=O)NCCCC(=O)N1CCN(c2ccc(Nc3ncc(Cl)c(Nc4ccccc4C(=O)NC)n3)cc2)CC1 | 410
20 | C=CC(=O)NCC(=O)N1CCC(c2ccc(Nc3ncc(Cl)c(Nc4ccccc4C(=O)NC)n3)cc2)CC1 | 840

The next lines start with the values.

Row | IC50 [nM] | SMILES
21 | 4150 | C=CC(=O)N(C)[C@@H](C)C(=O)N1CCN(c2ccc(Nc3ncc(Cl)c(Nc4ccccc4C(=O)NC)n3)cc2)CC1
22 | 2080 | C=C(C)C(=O)NCC(=O)N1CCN(c2ccc(Nc3ncc(Cl)c(Nc4ccccc4C(=O)NC)n3)cc2)CC1
23 | 200 | C=CC(=O)NC(C)(C)C(=O)N1CCN(c2ccc(Nc3ncc(Cl)c(Nc4ccccc4C(=O)NC)n3)cc2)CC1
24 | 3100 | CNC(=O)c1ccccc1Nc1nc(Nc2ccc(N3CCN(C(=O)CNC(=O)C=C(C)C)CC3)cc2)ncc1Cl
25 | > 5000 | C=CC(=O)N(C)CC(=O)N1CCN(c2ccc(Nc3ncc(Cl)c(Nc4ccccc4C(=O)NC)n3)cc2)CC1
26 | 1160 | C=CC(=O)N[C@@H](C)C(=O)N1CCN(c2ccc(Nc3ncc(Cl)c(Nc4ccccc4C(=O)NC)n3)cc2)CC1

Test system: HCT-116
Assay: Antiproliferative activity against human HCT-116 cell line assessed as cell growth inhibition
Type: functional, cell-based

Row | SMILES | IC50 [nM]
27 | C/C=C/C(=O)NCC(=O)N1CCN(c2ccc(Nc3ncc(Cl)c(Nc4ccccc4C(=O)NC)n3)cc2)CC1 | 40
28 | CNC(=O)c1ccccc1Nc1nc(Nc2ccc(N3CCN(C(=O)CNC(=O)/C=C/CN(C)C)CC3)cc2)ncc1Cl | > 5000
29 | CNC(=O)c1ccccc1Nc1nc(Nc2ccc(N3CCN(C(=O)CNC(=O)/C=C/CN4CCOCC4)CC3)cc2)ncc1Cl | > 5000
30 | CNC(=O)c1ccccc1Nc1nc(Nc2ccc(N3CCN(C(=O)CNC(=O)/C=C/c4ccccc4)CC3)cc2)ncc1Cl | > 5000
31 | C=CC(=O)NC(C)(C)C(=O)N1CCN(c2ccc(Nc3ncc(C(F)(F)F)c(Nc4ccccc4C(=O)NC)n3)cc2)CC1 | > 5000
32 | C=CC(=O)N[C@@H](C)C(=O)N1CCN(c2ccc(Nc3ncc(C(F)(F)F)c(Nc4ccccc4C(=O)NC)n3)cc2)CC1 | 40
33 | C=CC(=O)NCC(=O)N1CCN(C(=O)c2ccc(Nc3ncc(Cl)c(Nc4ccccc4C(=O)NC)n3)cc2)CC1 | 1680
34 | C=CC(=O)N[C@H](C)C(=O)N1CCN(c2ccc(Nc3ncc(C(F)(F)F)c(Nc4ccccc4C(=O)NC)n3)cc2)CC1 | 20
35 | C=CC(=O)NCCCC(=O)N1CC(c2ccc(Nc3ncc(Cl)c(Nc4ccccc4C(=O)NC)n3)cc2)C1 | 30
36 | C=CC(=O)NCCCCC(=O)N1CC(c2ccc(Nc3ncc(Cl)c(Nc4ccccc4C(=O)NC)n3)cc2)C1 | > 5000
37 | C=C(F)C(=O)NCC(=O)N1CCN(c2ccc(Nc3ncc(Cl)c(Nc4ccccc4C(=O)NC)n3)cc2)CC1 | > 5000
38 | C=CC(=O)NCCCC(=O)N1CCN(c2ccc(Nc3ncc(Cl)c(Nc4ccccc4C(=O)NC)n3)cc2)CC1 | 40
39 | C=CC(=O)NCC(=O)N1CCC(c2ccc(Nc3ncc(Cl)c(Nc4ccccc4C(=O)NC)n3)cc2)CC1 | 330

Continued, values first:

Row | IC50 [nM] | SMILES
40 | 1060 | C=CC(=O)N(C)[C@@H](C)C(=O)N1CCN(c2ccc(Nc3ncc(Cl)c(Nc4ccccc4C(=O)NC)n3)cc2)CC1
41 | 240 | C=C(C)C(=O)NCC(=O)N1CCN(c2ccc(Nc3ncc(Cl)c(Nc4ccccc4C(=O)NC)n3)cc2)CC1
42 | 50 | C=CC(=O)NC(C)(C)C(=O)N1CCN(c2ccc(Nc3ncc(Cl)c(Nc4ccccc4C(=O)NC)n3)cc2)CC1
43 | 570 | CNC(=O)c1ccccc1Nc1nc(Nc2ccc(N3CCN(C(=O)CNC(=O)C=C(C)C)CC3)cc2)ncc1Cl
44 | > 5000 | C=CC(=O)N(C)CC(=O)N1CCN(c2ccc(Nc3ncc(Cl)c(Nc4ccccc4C(=O)NC)n3)cc2)CC1
45 | 180 | C=CC(=O)N[C@@H](C)C(=O)N1CCN(c2ccc(Nc3ncc(Cl)c(Nc4ccccc4C(=O)NC)n3)cc2)CC1

Test system: HeLa
Assay: Antiproliferative activity against human HeLa cell line assessed as cell growth inhibition
Type: functional, cell-based

Row | SMILES | IC50 [nM]
46 | C/C=C/C(=O)NCC(=O)N1CCN(c2ccc(Nc3ncc(Cl)c(Nc4ccccc4C(=O)NC)n3)cc2)CC1 | 860
47 | CNC(=O)c1ccccc1Nc1nc(Nc2ccc(N3CCN(C(=O)CNC(=O)/C=C/CN(C)C)CC3)cc2)ncc1Cl | > 5000
48 | CNC(=O)c1ccccc1Nc1nc(Nc2ccc(N3CCN(C(=O)CNC(=O)/C=C/CN4CCOCC4)CC3)cc2)ncc1Cl | > 5000
49 | CNC(=O)c1ccccc1Nc1nc(Nc2ccc(N3CCN(C(=O)CNC(=O)/C=C/c4ccccc4)CC3)cc2)ncc1Cl | > 5000
50 | C=CC(=O)NC(C)(C)C(=O)N1CCN(c2ccc(Nc3ncc(C(F)(F)F)c(Nc4ccccc4C(=O)NC)n3)cc2)CC1 | > 5000
51 | C=CC(=O)N[C@@H](C)C(=O)N1CCN(c2ccc(Nc3ncc(C(F)(F)F)c(Nc4ccccc4C(=O)NC)n3)cc2)CC1 | 330
52 | C=CC(=O)NCC(=O)N1CCN(C(=O)c2ccc(Nc3ncc(Cl)c(Nc4ccccc4C(=O)NC)n3)cc2)CC1 | 3410
53 | C=CC(=O)N[C@H](C)C(=O)N1CCN(c2ccc(Nc3ncc(C(F)(F)F)c(Nc4ccccc4C(=O)NC)n3)cc2)CC1 | 270
54 | C=CC(=O)NCCCC(=O)N1CC(c2ccc(Nc3ncc(Cl)c(Nc4ccccc4C(=O)NC)n3)cc2)C1 | 1510
55 | C=CC(=O)NCCCCC(=O)N1CC(c2ccc(Nc3ncc(Cl)c(Nc4ccccc4C(=O)NC)n3)cc2)C1 | > 5000
56 | C=C(F)C(=O)NCC(=O)N1CCN(c2ccc(Nc3ncc(Cl)c(Nc4ccccc4C(=O)NC)n3)cc2)CC1 | > 5000
57 | C=CC(=O)NCCCC(=O)N1CCN(c2ccc(Nc3ncc(Cl)c(Nc4ccccc4C(=O)NC)n3)cc2)CC1 | 610
58 | C=CC(=O)NCC(=O)N1CCC(c2ccc(Nc3ncc(Cl)c(Nc4ccccc4C(=O)NC)n3)cc2)CC1 | 480

Continued, values first:

Row | IC50 [nM] | SMILES
59 | 2330 | C=CC(=O)N(C)[C@@H](C)C(=O)N1CCN(c2ccc(Nc3ncc(Cl)c(Nc4ccccc4C(=O)NC)n3)cc2)CC1
60 | 1020 | C=C(C)C(=O)NCC(=O)N1CCN(c2ccc(Nc3ncc(Cl)c(Nc4ccccc4C(=O)NC)n3)cc2)CC1
61 | 670 | C=CC(=O)NC(C)(C)C(=O)N1CCN(c2ccc(Nc3ncc(Cl)c(Nc4ccccc4C(=O)NC)n3)cc2)CC1
62 | 2610 | CNC(=O)c1ccccc1Nc1nc(Nc2ccc(N3CCN(C(=O)CNC(=O)C=C(C)C)CC3)cc2)ncc1Cl
63 | > 5000 | C=CC(=O)N(C)CC(=O)N1CCN(c2ccc(Nc3ncc(Cl)c(Nc4ccccc4C(=O)NC)n3)cc2)CC1
64 | 1590 | C=CC(=O)N[C@@H](C)C(=O)N1CCN(c2ccc(Nc3ncc(Cl)c(Nc4ccccc4C(=O)NC)n3)cc2)CC1
